From patent publication US8404858B2, “Agent for regeneration and/or protection of nerves” (Ono Pharmaceutical Co., Ltd., priority 2005, dated 2013) come the findings set out here.

For one series, the target named is T1, rat EP2 receptor (Rattus norvegicus, UniProt Q62928).
T1 construct: expressed in transfected cells; host or cells: CHO cells (rEP2-CHO)
The series can be described thus: Measurement of EP2 agonist activity (intracellular cyclic AMP concentration, cAMP assay). The class given is cell-based. The settings on record: rEP2-CHO cell, maximum = PGE2 (1 μmol/l). On the procedure:
(1-1) Measurement of EP2 Agonist Activity (Measurement of Intracellular Cyclic AMP (cAMP) Concentration (cAMP Assay))
A rat EP2 receptor forced expression cell (rEP2-CHO cell) was incubated in an incubator (5% CO2) of 37° C. using Minimum Essential Medium Eagle (Sigma, M4526) to which 10% fetal bovine serum (FBS, JRH) and 1/100 total volume of Penicillin Streptomycin Glutamine (GIBCO, 10378-016) had been added. The cells which reached confluent were exfoliated using trypsin and suspended in a medium (MEM medium containing 10% FBS) to a density of 2.0×10^5 cells per ml. The thus prepared suspension was seeded into a 24 well plate to be 1.0×10^5 cells per well portions and incubated for 48 hours. […]
The frozen sample was thawed and transferred to a micro centrifugation tube to be centrifuged (15,000 rpm, 4° C., 3 minutes). […] Using the upper layer as a sample, cAMP concentration was measured by a cAMP EIA system (cAMP Enzyme Immunoassay System, Amersham Biosciences).
Activity strengths of respective compounds were compared by calculating their EC50 values. The EC50 value was calculated by regarding changed amount of the cAMP concentration when PGE2 (1 μmol/l) was added instead of each compound as the maximum changed amount, and defining the value which gives half of the changed amount as the concentration of each compound.

For a further series, the target named is T2, rat EP3 receptor (Rattus norvegicus, UniProt P34980).
T2 construct: expressed in transfected cells; host or cells: CHO cells (rEP3-CHO)
T2 sequence (P34980 1-365): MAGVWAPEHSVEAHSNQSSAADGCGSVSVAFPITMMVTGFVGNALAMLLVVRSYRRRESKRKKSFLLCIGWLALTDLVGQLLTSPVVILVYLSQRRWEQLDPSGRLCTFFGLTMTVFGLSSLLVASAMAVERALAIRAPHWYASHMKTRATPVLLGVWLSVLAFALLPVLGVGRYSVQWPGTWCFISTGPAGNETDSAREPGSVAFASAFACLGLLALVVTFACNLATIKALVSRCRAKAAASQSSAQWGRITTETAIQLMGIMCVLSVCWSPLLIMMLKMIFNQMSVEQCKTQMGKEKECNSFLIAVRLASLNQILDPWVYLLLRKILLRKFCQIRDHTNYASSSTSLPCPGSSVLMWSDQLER
The series can be described thus: Measurement of EP3 agonist activity (intracellular calcium concentration real time imaging, Ca2+ assay). It counts as cell-based. The settings on record: rEP3-CHO cell, maximum = PGE2 (100 nmol/L). On the procedure:
(1-2) Measurement of EP3 Agonist Activity (Intracellular Calcium Concentration Real Time Imaging (Ca^2+ Assay))
A rat EP3 receptor forced expression cell (rEP3-CHO cell) was incubated in an incubator (5% CO2) of 37° C. using Minimum Essential Medium Eagle (Sigma, M4526) to which 10% fetal bovine serum (FBS, JRH) and 1/100 of total volume of Penicillin Streptomycin Glutamine (GIBCO, 10378-016) had been added. The cells which reached confluent were exfoliated using trypsin and suspended in a medium (MEM medium containing 10% FBS) to a density of 1.0×10^5 cells per ml. […]
After the incubation, the culture fluid was removed from each well of the plate and a Fura2 loading buffer (10% FBS-containing MEM medium supplemented with Fura2-AM (5 μmol/L), HEPES (10 mmol/L), probenecid (2.5 mmol/L) and indometacin (20 μmol/L)) was added thereto, followed by incubating in an incubator (5% CO2) of 37° C. […] Measurement of the fluorescence intensity was continuously carried out for 3 minutes after addition of the compound.
Activity intensity of each compound was compared by calculating their EC50 values. The EC50 value was calculated by regarding mean of the changed amount of calcium concentration when PGE2 (100 nmol/L) was added instead of each compound as the maximum changed amount, and defining the value which gives half of the changed amount as the concentration of each compound. […]

A further series has as its system rat. The series can be described thus: Measurement of the cauda equina blood flow and the blood pressure. Conditions: urethane-anesthetized rat, continuous infusion through caudal vein for 30 minutes. The class given is in vivo. How it is done:
(3) The Measurement of the Cauda Equina Blood Flow and the Blood Pressure
1.5 g/kg of urethane was administered intraperitoneally to the rat to be anesthetized, and the catheter (for measurement of blood pressure and ventricular rate) was placed in left carotid artery in supine position. The rat was reversed to prone position and the lumbar part was incised in the median line. The laminectomy was given to the fifth lumbar vertebra and the spinal cord (cauda equina) was exposed. The cauda equina blood flow was measured by the laser-Doppler flowmetry (OMEGAFLD FLO-NI and ADVANCE LASER FLOWMETER ALF21N, OMEGA WAVE Inc.) through a noncontact probe (ST-N type, OMEGA WAVE Inc.) and recorded with LINEARCORDER (Graphtech). The systemic blood pressure and the ventricular rate were measured from a left carotid artery with amplifier for the pressure measurement (GOULD) through a pressure transducer and recorded with LINEARCORDER (Graphtech). After confirming each parameter of blood pressure, ventricular rate and blood flow was stabilized, the test compound was administrated by continuous infusion through the winged needle placed in caudal vein for 30 minutes. It observed until 30 minutes after the administration and the increase rate of the cauda equina blood flow was calculated.
The increase rate of the cauda equina blood flow (%)=(B−A)/A×100 […]

Another series concerns cauda equina nerve. The series can be described thus: Measurement of cauda equina nerve repair acceleration activity (rat cauda equina nerve compression gait disturbance model). The class given is in vivo. Conditions: intravenous continuous administration 2 hours×twice/day, 2 weeks, in comparison with the physiological saline administration group. On the procedure: (2) Measurement of Cauda Equina Nerve Repair Acceleration Activity
A rat cauda equina nerve compression gait disturbance model was prepared by the method of Takenobu et al. (J. Neurosci. Methods, 104 (2), 191-198, 2002). Namely, a rat was anesthetized with pentobarbital sodium and, after shaving its dorsal region, fixed at abdominal position. After disinfection of the dorsal region with chlorhexidine gluconate (5% hibitane liquid; Sumitomo Pharmaceuticals), the waist was median-incised to expose the spinal column. After excision of the fifth lumbar gemmule, a silicon rubber of 1×4×1.25 mm (height×length×width) was inserted into the fourth lumbar and sixth lumbar spinal canals from a small hole on the vertebral arch bored by a mini drill. For the purpose of avoiding infections, benzylpenicillin potassium (Crystalline Penicillin G Potassium Meiji; Meiji Seika Kaisha, Ltd.) was added dropwise to the incised part and intramuscularly injected into the thigh parts. The muscle and skin of the incised part were stitched with a surgical suture, and Iodine Tincture was applied to the stitched part. Animals of the sham operation group were prepared in accordance with the aforementioned method, but the insertion of silicon rubber was not carried out. […]

T1 sequence (Q62928 whole entry): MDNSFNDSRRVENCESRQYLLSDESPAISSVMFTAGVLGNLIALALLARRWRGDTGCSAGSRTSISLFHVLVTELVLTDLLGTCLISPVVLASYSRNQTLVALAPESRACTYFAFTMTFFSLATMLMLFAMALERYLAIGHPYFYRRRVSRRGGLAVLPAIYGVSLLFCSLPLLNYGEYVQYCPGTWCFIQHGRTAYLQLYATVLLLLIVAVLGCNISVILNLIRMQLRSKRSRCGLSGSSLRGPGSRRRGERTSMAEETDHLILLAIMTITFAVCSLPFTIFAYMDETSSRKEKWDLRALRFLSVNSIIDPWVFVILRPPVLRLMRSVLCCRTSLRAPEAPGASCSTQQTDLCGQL

As for `C[C@@](O)(C/C=C/[C@H]1CCC(=O)[C@@H]1CCSc1nc(C(=O)O)cs1)CC1CCCCC1` [compound 17, 2-[(2-{(1R,2R)-2-[(1E,4S)-5-cyclohexyl-4-hydroxy-4-methyl-1-penten-1-yl]-5-oxocyclopentyl}ethyl)thio]-1,3-thiazole-4-carboxylic acid], the EC50 is 0.011 µM on rat EP2 receptor and 0.031 µM on rat EP3 receptor. Moreover, in the series with rat (left carotid artery), the “decrease of the blood pressure” value is on record as 5 mmHg. Further, in the series on rat (observed until 30 minutes after), the “increase rate of the cauda equina blood flow” value is given as 33%.

`O=C(O)c1csc(SCCN2C(=O)OC[C@@H]2/C=C/[C@@H](O)C2(CCCCF)CCC2)n1` [compound A, 2-{[2-((4S)-4-{(1E,3R)-3-[1-(4-fluorobutyl)cyclobutyl]-3-hydroxy-1-propenyl}-2-oxo-1,3-oxazolidin-3-yl)ethyl]sulfanyl}-1,3-thiazole-4-carboxylic acid]: the EC50 at rat EP2 receptor came to 0.016 µM; at rat EP3 receptor, 0.099 µM. The “appearance rate of regeneration nerve fascicles” value in the series with cauda equina nerve is “significantly high appearance rate of regeneration nerve fascicles”.
